# Values of other authors as cited in US10052295B2, “Method, composition and package for bowel cleansing” (priority 2011, dated 2018).
SMILES,GI symptoms (doses as high as 50 mg (Storey 2006)),toxic effects in humans (doses as high as 50 grams per day for over two years (Makinen 1976)),"watery feces (doses over 35 grams, compared with erythritol (Storey 2006))"
OC[C@@H](O)[C@@H](O)CO [erythritol],not reported to produce any significant GI symptoms,,
OC[C@@H](O)[C@H](O)[C@@H](O)CO [xylitol],,no toxic effects,significantly more watery feces
